This is an account of results in patent EP3335720A1, “C-DI-GMP BINDING PEPTIDES” (Universität Basel, priority 2016, dated 2018).

Square brackets hold non-standard residues; d marks the D form. Peptide text beside a SMILES is read from it. * marks the point of attachment. FITC = O=C1OC2(c3ccc(O)cc3Oc3cc(O)ccc32)c2ccc(NC(=S)*)cc21

For one series, the system named is epithelial HeLa cells. The series is described as follows: Cytotoxicity assays: resazurin reduction assay and LDH release assay. It counts as cell-based, human. Conditions: 24 hours, Figures 11 and 12. How it is done:
The cytotoxicity of the peptides was determined with a Resazurin cell viability assay (Sigma #R7017). In a 96-well plate (Corning #3904), monolayers of epithelial HeLa ATCC CCL-2 cells were grown in 100 µl growth medium (DMEM (Sigma #D5796) containing 10% FCS). Afterwards, the medium was removed and either replaced by DMEM/10% FCS containing 2-fold serial diluted peptides with a highest concentration of 256 mg/L. After 24 hours, the medium was removed and replaced by 100 µl fresh growth medium. 1% Triton X-100 (Sigma) was used as positive lysis control. 20 µl of resazurin solution (0.1 mg/ml) was added. After 2 hours, the fluorescence signal was recorded using a microplate reader (Synergy H4 BioTek) with an excitation wavelength of 560 nm and emission wavelength 590 nm.
Cells were prepared and treated with peptides as described for the resazurin reduction assay. 24 hours after peptide treatment, control wells were treated with 1% Triton X-100 (Sigma) as lysis control. LDH release was measured using the LDH Cytotoxicity Detection Kit (Clontech). Absorbance was measured at 490 nm using a microplate reader (Synergy H4 BioTek). The percentage of cell death was calculated as follows: (LDH peptide treated - LDH untreated)/(LDH total lysis - LDH untreated)* 100.

Another series concerns the target c-di-GMP. The series is described as follows: Binding affinity of peptides to c-di-GMP by isothermal titration calorimetry (ITC). As to conditions: for Kd: Table 3, peptides with amino acid substitution, 15°C, pH 8.0, read-out: Dissociation constant. How it is done:
Binding affinities of peptides to c-di-GMP were measured using isothermal titration calorimetry (ITC) on a VP-ITC MicroCalorimeter (MicroCal, Northampton, MA, USA). Peptides, c-di-GMP and buffer (50 mM Tris-HCl, pH 8.0, 100 mM NaCl) were degassed for 15 min prior to filling into sample cell and syringe. All experiments were carried out at a temperature of 15°C. The data were evaluated using ITC Data Analysis in ORIGIN provided by the manufacturer.

A short description of the next series: in vitro. It counts as in vitro ADME, P. aeruginosa PAO1. Conditions: cells or culture medium. The method, then:
P. aeruginosa PAO1 lysate, which was used to test peptide stability, was prepared by the following procedure. 500 ml of cells grown overnight at 37°C were harvested by centrifugation at 5000 rpm, 10 min at 4°C. Pellets were resuspended in 60 ml PBS (Gibco) and centrifuged at 5000 rpm, 10 min at 4°C. Pellets were resuspended again in 20 ml PBS and centrifuged at 5000 rpm, 10 min at 4°C. Cells were disrupted using high-pressure cell disrupter (Stansted Fluid Power). Cell lysate was separated from cell debris by centrifugation at 14,000 rpm for 20 min at 4°C. Lysate was diluted 10 fold to yield a protein content of about 1 mg/ml. The lysate was used for all experiments described below.
The stability of peptides was tested against P. aeruginosa PAO1 cell lysate. About 1 to 3 µg of peptides were incubated with 5 µl P. aeruginosa PAO1 cell lysate or PBS (untreated controls) at 37°C. After 2 hours, 6 µl of 2x SDS sample buffer was added to the samples and heated to 95°C for 5 min. Samples were analyzed on 10-20% Mini-PROTEAN tris-tricine gels (BIO-RAD #4563115) according to manufacturer's recommended protocol. Band intensities were quantified using the program ImageJ (Schneider, C. A., Rasband, W. S. and Eliceiri, K. W. 2012. NIH Image to ImageJ: 25 years of image analysis. Nature methods. 9: 671-675).

In series [1] the test system is P. aeruginosa PAO1 biofilms. It counts as cell-based. As to conditions: PAO1, 24 h. The method, then: The parameter "MBIC50", as used herein, is defined as the peptide concentration leading to 50% biofilm reduction in a standard biofilm assay. Preferably, the medium used for the assay is Mueller-Hinton broth (MHB), since most bacteria can be grown in this medium, and it allows a reliable comparison of MBIC values. MBIC50 values in accordance with the invention are obtained by growing P. aeruginosa at 37°C in presence of different concentrations of peptides, without agitation, for 24 h, followed by staining the adherent biofilm, dissolving the biofilm and measuring the OD600.
The standard biofilm assay (O'Toole G.A., Pratt L.A., Watnick P.I., Newman D.K., Weaver V.B., and Kolter R. 1999. Genetic approaches to study of biofilms. Methods Enzymol. 310: 91-109) was followed with minor modification, i.e. Mueller-Hinton II broth (MHB) (Becton Dickinson #212322) was used instead of lysogenic broth (LB) or minimal medium. MHB is preferred by The European Committee on Antimicrobial Susceptibility Testing (EUCAST) as the medium for MIC determination because most bacteria can be grown in this medium, which allows a more reliable MIC values comparisons. The MBIC50 was defined as the peptide concentration leading to 50% biofilm reduction (de la Fuente-Nunez C., Korolik V., Bains M., Nguyen U., Breidenstein E. B. M., Horsman S., Lewenza S., Burrows L., Hancock, R. E. W. (2012) Inhibition of bacterial biofilm formation and swarming motility by a small synthetic cationic peptide. 56: 2696-2704). MBIC50 values were obtained by growing P. aeruginosa (PAO1) biofilms in 96-well plates (Falcon #353072) in presence of peptides at 37°C without agitation in MHB. After 24 hours, bacterial growth was evaluated by measuring the OD600 in a microtiter plate reader (EL800, BioTek). Afterwards, the plates were rinsed three times with demineralized water to remove non-attached bacteria. The adherent biofilms were stained with 0.1% Crystal Violet and subsequently dissolved in 20% acetic acid. Dissolved biofilms were quantified by measuring the OD600 in a microtiter plate reader.

On to `C[C@H](NC(=O)[C@H](CO)NC(=O)[C@H](CC(N)=O)NC(=O)[C@H](Cc1ccccc1)NC(=O)[C@H](CCCNC(=N)N)NC(=O)[C@H](CCCNC(=N)N)NC(=O)[C@H](CCCNC(=N)N)NC(=O)[C@H](CC(=O)O)NC(=S)Nc1ccc2c(c1)C(=O)OC21c2ccc(O)cc2Oc2cc(O)ccc21)C(=O)N[C@@H](CC(=O)O)C(=O)N[C@@H](Cc1ccc(O)cc1)C(=O)N[C@@H](CCCCN)C(=O)NCC(=O)N1CCC[C@H]1C(=O)N[C@@H](CCCNC(=N)N)C(=O)N[C@@H](CCCNC(=N)N)C(=O)N[C@@H](CCCNC(=N)N)C(=O)N[C@@H](CCCCN)C(=O)N[C@@H](C)C(=O)N[C@@H](CC(=O)O)C(N)=O` [SEQ ID NO: 43, FITC-DRRRFNSADYKGPRRRKAD-NH2] ({FITC}-DRRRFNSADYKGPRRRKAD-NH2), for which the “concentration up to which no toxic effect was shown” value with epithelial HeLa cells is given as at most 64 mg/L.

Consider “Ac-DRRRFNSADYKAPRRRKAD-NH2 [compound 24]”, for which the Kd on c-di-GMP came to 4070 nM. Further, the share remaining at 2 h in the series “in vitro” worked out at 41%.

Take “Ac-DRRRFASADYKGPRRRKAD-NH2 [compound 18]”: the Kd at c-di-GMP is 220 nM. The share remaining at 2 h in the series “in vitro” amounted to 1%. “Ac-DRRRFNSADYKGARRRKAD-NH2 [compound 25]”: the Kd at c-di-GMP is 350 nM. This compound also showed a fraction remaining at 2 h in “in vitro” of 30%. As for “Ac-DRRRFNSADYKGPRRRKAD-NH2 [compound 12]”, the MBIC50 in series [1] was 0.25 to 0.5 mg/L.

As to “Ac-DRRRFNSLDYKGPRRRKAD-NH2 [compound 20]”, the Kd at c-di-GMP is 100 nM. The amount remaining at 2 h in “in vitro” was found to be 27%. The compound `C[C@H](NC(=O)[C@H](CO)NC(=O)[C@H](CC(N)=O)NC(=O)[C@H](Cc1ccccc1)NC(=O)[C@H](CCCNC(=N)N)NC(=O)[C@H](CCCNC(=N)N)NC(=O)[C@H](CCCNC(=N)N)NC(=O)[C@H](CC(=O)O)NC(=S)Nc1ccc2c(c1)C(=O)OC21c2ccc(O)cc2Oc2cc(O)ccc21)C(=O)N[C@@H](CC(=O)O)C(=O)N[C@@H](Cc1ccc(O)cc1)C(=O)N[C@@H](CCCCN)C(=O)NCC(=O)N1CCC[C@H]1C(=O)N[C@@H](CCCNC(=N)N)C(=O)N[C@@H](CCCNC(=N)N)C(=O)N[C@@H](CCCNC(=N)N)C(=O)N[C@@H](CCCCN)C(=O)N[C@@H](C)C(=O)N[C@@H](CC(=O)O)C(N)=O` [compound 43] ({FITC}-DRRRFNSADYKGPRRRKAD-NH2) displayed an MBIC50 in series [1] of 0.25 to 0.5 mg/L.

For “Ac-DRRRFNSADYKGPARRKAD-NH2 [compound 26]”, the Kd on c-di-GMP amounted to 1830 nM. Moreover, in the series “in vitro”, the fraction remaining at 2 h came out at 27%. Turning to “Ac-DRRRFNSADAKGPRRRKAD-NH2 [compound 22]”, the Kd on c-di-GMP was 4360 nM. For the same compound, the share remaining at 2 h in “in vitro” was 39%. As for “Ac-DRRAFNSADYKGPRRRKAD-NH2 [compound 16]”, the Kd on c-di-GMP is 780 nM. The same compound showed a share remaining at 2 h in “in vitro” of 35%. Taken in the same sequence, the figures for “Ac-ARRRFNSADYKGPRRRKAD-NH2 [compound 13]” were 1530 nM and 56%. The compound `C[C@H](NC(=O)[C@H](CO)NC(=O)[C@H](CC(N)=O)NC(=O)[C@H](Cc1ccccc1)NC(=O)[C@H](CCCNC(=N)N)NC(=O)[C@H](CCCNC(=N)N)NC(=O)[C@H](CCCNC(=N)N)NC(=O)[C@H](CC(=O)O)NC(=O)[C@H](N)CCCNC(=N)N)C(=O)N[C@@H](CC(=O)O)C(=O)N[C@@H](Cc1ccc(O)cc1)C(=O)N[C@@H](CCCCN)C(=O)NCC(=O)N1CCC[C@H]1C(=O)N[C@@H](CCCNC(=N)N)C(=O)N[C@@H](CCCNC(=N)N)C(=O)N[C@@H](CCCNC(=N)N)C(=O)N[C@@H](CCCCN)C(=O)N[C@@H](C)C(=O)N[C@@H](CC(=O)O)C(=O)N[C@H](C)C(N)=O` [compound 42] (H-[dR]DRRRFNSADYKGPRRRKAD[dA]-NH2) registered a share remaining at 2 h in “in vitro” of 38%. Take “Ac-DRRRFNSADYKGPRRRAAD-NH2 [compound 29]”: the Kd on c-di-GMP came to 270 nM. The fraction remaining at 2 h in the series “in vitro” stood at 9%. For the compound “Ac-DRRRANSADYKGPRRRKAD-NH2 [SEQ ID NO: 17, AC-DRRRANSADYKGPRRRKAD-NH2]”, the “binding affinity to c-di-GMP, in words” value in the series on c-di-GMP (compared to the core sequence / peptide of SEQ ID NO: 12) is given as “does not significantly reduce binding affinity”. In “in vitro”, this compound had an amount remaining at 2 h of 70%. Regarding `C[C@H](NC(=O)[C@H](CO)NC(=O)[C@H](CC(N)=O)NC(=O)[C@H](Cc1ccccc1)NC(=O)[C@H](CCCNC(=N)N)NC(=O)[C@H](CCCNC(=N)N)NC(=O)[C@H](CCCNC(=N)N)NC(=O)[C@H](CC(=O)O)NC(=O)[C@H](CCCNC(=N)N)NC(=O)[C@H](CCCNC(=N)N)NC(=O)[C@H](CCCNC(=N)N)NC(=O)[C@H](CCCNC(=N)N)NC(=O)[C@H](CCCNC(=N)N)NC(=O)[C@H](CCCNC(=N)N)NC(=O)[C@H](CCCNC(=N)N)NC(=O)[C@H](CCCNC(=N)N)NC(=S)Nc1ccc2c(c1)C(=O)OC21c2ccc(O)cc2Oc2cc(O)ccc21)C(=O)N[C@@H](CC(=O)O)C(=O)N[C@@H](Cc1ccc(O)cc1)C(=O)N[C@@H](CCCCN)C(=O)NCC(=O)N1CCC[C@H]1C(=O)N[C@@H](CCCNC(=N)N)C(=O)N[C@@H](CCCNC(=N)N)C(=O)N[C@@H](CCCNC(=N)N)C(=O)N[C@@H](CCCCN)C(=O)N[C@@H](C)C(=O)N[C@@H](CC(=O)O)C(N)=O` [SEQ ID NO: 48] ({FITC}-RRRRRRRRDRRRFNSADYKGPRRRKAD-NH2), in the series with epithelial HeLa cells, the “concentration up to which no toxic effect was shown” value is reported as at most 32 mg/L.

In the case of “Ac-DRRRFNAADYKGPRRRKAD-NH2 [compound 19]”, the Kd on c-di-GMP was 210 nM. In “in vitro”, this compound displayed an amount remaining at 2 h of 30%.

Take “Ac-DRRRFNSAAYKGPRRRKAD-NH2 [compound 21]”: at c-di-GMP, the Kd was 150 nM. Further, the fraction remaining at 2 h in the series “in vitro” amounted to 2%. “Ac-DARRFNSADYKGPRRRKAD-NH2 [compound 14]”: the Kd at c-di-GMP turned out to be 1450 nM. The compound further came in with a fraction remaining at 2 h in the series “in vitro” of 12%. For the compound “Ac-DRRRFNSADYKGPRRRKLD-NH2 [compound 30]”, the Kd at c-di-GMP is 250 nM. In the series “in vitro”, the fraction remaining at 2 h turned out to be 51%.

As to “Ac-DRRRFNSADYKGPRARKAD-NH2 [compound 27]”, at c-di-GMP, the Kd came out at 3950 nM. The compound also showed an amount remaining at 2 h in “in vitro” of 2%. On to “Ac-DRARFNSADYKGPRRRKAD-NH2 [compound 15]”, for which the Kd at c-di-GMP is 1510 nM. The same compound returned a fraction remaining at 2 h in the series “in vitro” of 11%. As for “Ac-DRRRFNSADYKGPRRRKAA-NH2 [compound 31]”, the Kd on c-di-GMP stood at 1750 nM. The same compound showed a share remaining at 2 h in the series “in vitro” of 26%. With “Ac-DRRRFNSADYAGPRRRKAD-NH2 [compound 23]”, the Kd on c-di-GMP is 260 nM. In “in vitro”, this compound showed an amount remaining at 2 h of 42%.
